Source: patent US10377783B2, “Methods and compounds for enhancing contrast in magnetic resonance imaging (MRI)” (priority 2015, dated 2019)

Key:
male Sprague-Dawley rats = experiment: In vivo acute toxicity; design: species or system rat
Description: Compound 1 (aq., 12.5 mM) was injected intravenously into 4 male rats (Sprague Dawley Crl:SD, 315-340 g) at a dosage of 0.02 mmol/kg following anaesthesia with 5% isoflurane. […] Body weight measurements and hematology were performed on days −1, 7 and 14. Compound 6 (aq., 6.25 mM) was injected intravenously into 8 male rats (Sprague Dawley Crl:SD, 327-365 g) at a dosage of 0.01 mmol/kg following anaesthesia with 5% isoflurane. […] Body weight measurements and hematology were performed on days −1, 1 and 8. Following euthanasia, the heart, lungs, liver, kidneys, spleen, thyroid and pituitary glands were grossly examined during necropsy, and samples of the brain, heart (compound 1 only), lungs, liver, kidneys, spleen and thymus (compound 1 only) were microscopically evaluated during histopathological examination.
The acute toxicities of 1 and 6 were studied in 8 week old male Sprague-Dawley rats. The toxicity of 1 was studied over a period of 14 days, in four rats; while the toxicity of 6 was studied over a period of 8 days, in 8 rats. Compound 1 was injected intravenously at a dosage of 0.02 mmol/kg (c=12.5 mM), while 6 was injected at a dosage of 0.01 mmol/kg (c=6.25 mM). These dosages were chosen because the dosage for the only Mn^II-based compound approved in North America, Teslascan, was 0.005 mmol/kg; and the inventors were anticipating a […] degree of toxicity.

[1] = tested on: male rats (Sprague Dawley Crl:SD); experiment: In vivo MRI imaging of 1, predominantly T1-weighted RARE fast-spin-echo scans; design: species or system rat; settings: 0.02 mmol/kg iv; for MRI signal intensity, bladder: baseline (−10 min) 414.3; for MRI signal intensity, skeletal muscle: baseline (−10 min) 432.1; for MRI signal intensity, renal pelvis: baseline (−10 min) 465.7; for MRI signal intensity, renal medulla: baseline (−10 min) 480.8; for MRI signal intensity, liver: baseline (−10 min) 498.6; for MRI signal intensity, renal cortex: baseline (−10 min) 579.1
Description: Compound 1 (aq., 12.5 mM) was injected intravenously into 2 male rats (Sprague Dawley Crl:SD, 312-338 g) at a dosage of 0.02 mmol/kg following anaesthesia with 5% isoflurane. Compound 2 (aq., 6.25 mM) was injected intravenously into 1 male rat (Sprague Dawley Crl:SD, 349 g) at a dosage of 0.01 mmol/kg following anaesthesia with 5% isoflurane. Compound 6 (aq., 6.25 mM) was injected intravenously into 1 male rat (Sprague Dawley Crl:SD, 341 g) at a dosage of 0.01 mmol/kg following anaesthesia with 5% isoflurane. Anesthesia was maintained at 2-2.5% isoflurane through a nose cone for the duration of the scans. Fast-spin-echo images were collected for 45 mins. immediately post-injection. For compound 1, the DT1-weighted RARE (Rapid Acquisition Relaxation Enhancement) scans were acquired with an echo time of 10 ms, and a repetition time=respiratory cycle duration (˜1100 ms). Both T1- and T2-weighted scans were collected on compounds 2 and 6.
The in vivo contrast potential of compounds 1, 2 and 6 were studied via the collection of fast-spin-echo images for 30-45 minutes immediately following injection of an aqueous solution of each complex. The dosage chosen for 1 was 0.02 mmol/kg (c=[…]) while the dosage chosen for 2 and 6 was 0.01 mmol/kg (c=6.25 mM). Predominantly T1-weighted scans with some T2-weighting were performed on two rats injected with 1.

[2] = percentage of the initial intensity, first 45 min

CC1=NCCNCCNCCN=C(C)c2cccc1n2.O.O.[Cl-].[Cl-].[Mn+2] [Compound 1, [MnL1Cl2].2H2O]
acute toxicity (overall) (male Sprague-Dawley rats; 0.02 mmol/kg iv, 4 rats, 14 days): minimally- to non-acutely toxic
toxicity (summary of the in vivo studies) (male Sprague-Dawley rats; at the studied dosages): negligible toxicity
excretion (summary) [1]: rapid excretion
time to appearance in the bladder [1]: ≤ 5 min
MRI signal intensity, bladder ([1]; 2 min after injection): 454.3 arbitrary units of voxel intensity
MRI signal intensity, skeletal muscle ([1]; 2 min after injection): 358.5 arbitrary units of voxel intensity
MRI signal intensity, renal pelvis ([1]; 2 min after injection): 881.1 arbitrary units of voxel intensity
MRI signal intensity, renal medulla ([1]; 2 min after injection): 608.9 arbitrary units of voxel intensity
MRI signal intensity, liver ([1]; 2 min after injection): 458.8 arbitrary units of voxel intensity
MRI signal intensity, renal cortex ([1]; 2 min after injection): 635.2 arbitrary units of voxel intensity
MRI signal intensity, bladder ([1]; 10 min after injection): 1093.1 arbitrary units of voxel intensity
MRI signal intensity, skeletal muscle ([1]; 10 min after injection): 354.3 arbitrary units of voxel intensity
MRI signal intensity, renal pelvis ([1]; 10 min after injection): 920.7 arbitrary units of voxel intensity
MRI signal intensity, renal medulla ([1]; 10 min after injection): 561.8 arbitrary units of voxel intensity
MRI signal intensity, liver ([1]; 10 min after injection): 436.2 arbitrary units of voxel intensity
MRI signal intensity, renal cortex ([1]; 10 min after injection): 683.4 arbitrary units of voxel intensity
MRI signal intensity, bladder ([1]; 15 min after injection): 1147.9 arbitrary units of voxel intensity
MRI signal intensity, skeletal muscle ([1]; 15 min after injection): 346.5 arbitrary units of voxel intensity
MRI signal intensity, renal pelvis ([1]; 15 min after injection): 806.3 arbitrary units of voxel intensity
MRI signal intensity, renal medulla ([1]; 15 min after injection): 524.4 arbitrary units of voxel intensity
MRI signal intensity, liver ([1]; 15 min after injection): 410.2 arbitrary units of voxel intensity
MRI signal intensity, renal cortex ([1]; 15 min after injection): 660.3 arbitrary units of voxel intensity
MRI signal intensity, bladder ([1]; 20 min after injection): 1046.4 arbitrary units of voxel intensity
MRI signal intensity, skeletal muscle ([1]; 20 min after injection): 337.5 arbitrary units of voxel intensity
MRI signal intensity, renal pelvis ([1]; 20 min after injection): 733.9 arbitrary units of voxel intensity
MRI signal intensity, renal medulla ([1]; 20 min after injection): 502.9 arbitrary units of voxel intensity
MRI signal intensity, liver ([1]; 20 min after injection): 424.5 arbitrary units of voxel intensity
MRI signal intensity, renal cortex ([1]; 20 min after injection): 717.0 arbitrary units of voxel intensity
MRI signal intensity, bladder ([1]; 30 min after injection): 970.1 arbitrary units of voxel intensity
MRI signal intensity, skeletal muscle ([1]; 30 min after injection): 330.6 arbitrary units of voxel intensity
MRI signal intensity, renal pelvis ([1]; 30 min after injection): 704.7 arbitrary units of voxel intensity
MRI signal intensity, renal medulla ([1]; 30 min after injection): 512.6 arbitrary units of voxel intensity
MRI signal intensity, liver ([1]; 30 min after injection): 398.0 arbitrary units of voxel intensity
MRI signal intensity, renal cortex ([1]; 30 min after injection): 775.4 arbitrary units of voxel intensity
MRI signal intensity, bladder ([1]; 45 min after injection): 1030.1 arbitrary units of voxel intensity
MRI signal intensity, skeletal muscle ([1]; 45 min after injection): 351.0 arbitrary units of voxel intensity
MRI signal intensity, renal pelvis ([1]; 45 min after injection): 666.1 arbitrary units of voxel intensity
MRI signal intensity, renal medulla ([1]; 45 min after injection): 520.6 arbitrary units of voxel intensity
MRI signal intensity, liver ([1]; 45 min after injection): 369.8 arbitrary units of voxel intensity
MRI signal intensity, renal cortex ([1]; 45 min after injection): 804.1 arbitrary units of voxel intensity
liver signal ([1]; first 45 minutes): gradual liver hypoenhancement
renal cortical signal ([1]; first 45 minutes): slow increase in the renal cortical signal
Max. intensity change, bladder [1, 2]: 177%
Max. intensity change, liver [1, 2]: −26%
Max. intensity change, renal cortex [1, 2]: 39%
Max. intensity change, renal medulla [1, 2]: 27%
Max. intensity change, renal pelvis [1, 2]: 98%
Max. intensity change, skeletal muscle [1, 2]: −23%
retention in tissues or organs ([1]; scans 3 hours post-injection): no evidence of compound 1 being retained by any tissue or organ
